Like-named read-outs stand apart in the source and are kept apart here.
Columns and labels:
Saccharomyces cerevisiae = test: Test of antibacterial activity in vitro (bacteria-inhibition zone); assay type: cell-based; details: for zone of inhibition at 1.4 µg/mL / zone of inhibition at 2.8 µg/mL: Saccharomyces cerevisiae
esterase [1] = test: Test of esterase hydrolysis in sheep blood serum (HPLC); assay type: in vitro ADME
Protocol: Test of Esterase […]
Experiment drugs: the amphotericin B methyl pivalate prepared by example 1
Control drug: amphotericin B (standard product)
The stationary phase: Hypersil ODS2 5 um 4.6 mm×250 mm
The mobile phase: methanol: acetonitrile: EDTA-2Na (0.5 mmol)=60:20:20 flow rate: 1 ml/min
Detection system: ultraviolet detection, detection wavelength: 410 nm
Taking appropriate amount of the above mentioned amphotericin B, and amphotericin B methyl pivalate prepared by example 1, dissolving in a little dimethyl sulfoxide respectively, using pH7 phosphate buffer to dilute into solution which is equivalent to contain amphotericin B 280 Units per milliliter, taking 1 ml and using pH7 phosphate buffer to quantitatively dilute into solution which is equivalent to contain amphotericin B 2.8 μg/ml.
Again, preparing the solution according to the same method, adding 10% defibered sheep blood serum, using pH7 phosphate buffer to quantitatively dilute into solution which is equivalent to contain amphotericin B 2.8 μg/ml.
4. Mixing the amphotericin B methyl pivalate prepared by example 1 with sheep blood serum at 37° C. and culturing.
Referring to the test conditions of HPLC of example 25, wherein the mobile phase is acetonitrile: 0.05M ammonium acetate solution=60:40.

Candida mycoderma = test: Test of antibacterial activity in vitro (bacteria-inhibition zone); assay type: cell-based
Candida albicans = test: as above; assay type: cell-based; details: for zone of inhibition at 1.4 µg/mL / zone of inhibition at 2.8 µg/mL: Candida albicans
esterase [2] = details: cited from earlier work
[3] = study by Rutgers University; cited from earlier work
most of the fungal = details: for most of the fungal; cited from earlier work
[4] = 0 h, 1.4 μg/ml after conversion, no serum
[5] = 0 h, 1.4 μg/ml after conversion, serum added (40% defibered sheep serum)
[6] = 0 h, 2.8 μg/ml after conversion, no serum
[7] = 0 h, 2.8 μg/ml after conversion, serum added (40% defibered sheep serum)
[8] = 6 h, 1.4 μg/ml after conversion, no serum
[9] = 6 h, 2.8 μg/ml after conversion, no serum
[10] = 24 h, 1.4 μg/ml after conversion, no serum
[11] = 24 h, 2.8 μg/ml after conversion, no serum
[12] = 48 h, 1.4 μg/ml after conversion, no serum
[13] = 48 h, 2.8 μg/ml after conversion, no serum
[14] = 6 h, 1.4 μg/ml after conversion, serum added (40% defibered sheep serum)

## amphotericin B methyl pivalate
Saccharomyces cerevisiae; [4]
  diameter of the bacteria-inhibition zone, Saccharomyces cerevisiae 0 h: + (7-9 mm: +)
Saccharomyces cerevisiae; [5]
  diameter of the bacteria-inhibition zone, Saccharomyces cerevisiae 0 h: + (7-9 mm: +)
Saccharomyces cerevisiae; [6]
  diameter of the bacteria-inhibition zone, Saccharomyces cerevisiae 0 h: ++ (9-12 mm: ++)
Saccharomyces cerevisiae; [7]
  diameter of the bacteria-inhibition zone, Saccharomyces cerevisiae 0 h: ++ (9-12 mm: ++)
Saccharomyces cerevisiae; [8]
  diameter of the bacteria-inhibition zone, Saccharomyces cerevisiae 6 h: + (7-9 mm: +)
Saccharomyces cerevisiae; [9]
  diameter of the bacteria-inhibition zone, Saccharomyces cerevisiae 6 h: ++ (9-12 mm: ++)
Saccharomyces cerevisiae; [10]
  diameter of the bacteria-inhibition zone, Saccharomyces cerevisiae 24 h: + (7-9 mm: +)
Saccharomyces cerevisiae; [11]
  diameter of the bacteria-inhibition zone, Saccharomyces cerevisiae 24 h: ++ (9-12 mm: ++)
Saccharomyces cerevisiae; [12]
  diameter of the bacteria-inhibition zone, Saccharomyces cerevisiae 48 h: + (7-9 mm: +)
Saccharomyces cerevisiae; [13]
  diameter of the bacteria-inhibition zone, Saccharomyces cerevisiae 48 h: ++ (9-12 mm: ++)
Esterase [1]; 10% defibered sheep blood serum, 37° C., 24 hours
  hydrolysis by esterase to release the original drug, after 24 hours: most of the diester derivative is hydrolyzed by esterase to release amphotericin B
Esterase [1]; sheep blood serum, 37° C., 2, 6 and 24 hours
  hydrolysis by esterase under sheep blood serum cultivation, release of the original drug: gradually hydrolyzed by esterase
Candida mycoderma; [4]
  diameter of the bacteria-inhibition zone, Candida mycoderma 0 h: + (7-9 mm: +)
Candida mycoderma; [5]
  diameter of the bacteria-inhibition zone, Candida mycoderma 0 h: + (7-9 mm: +)
Candida mycoderma; [6]
  diameter of the bacteria-inhibition zone, Candida mycoderma 0 h: ++ (9-12 mm: ++)
Candida mycoderma; [7]
  diameter of the bacteria-inhibition zone, Candida mycoderma 0 h: ++ (9-12 mm: ++)
Candida mycoderma; [8]
  diameter of the bacteria-inhibition zone, Candida mycoderma 6 h: + (7-9 mm: +)
Candida mycoderma; [14]
  diameter of the bacteria-inhibition zone, Candida mycoderma 6 h: ++ (9-12 mm: ++)
Candida mycoderma; [9]
  diameter of the bacteria-inhibition zone, Candida mycoderma 6 h: ++ (9-12 mm: ++)
Candida mycoderma; [10]
  diameter of the bacteria-inhibition zone, Candida mycoderma 24 h: + (7-9 mm: +)
Candida mycoderma; [11]
  diameter of the bacteria-inhibition zone, Candida mycoderma 24 h: ++ (9-12 mm: ++)
Candida mycoderma; [12]
  diameter of the bacteria-inhibition zone, Candida mycoderma 48 h: + (7-9 mm: +)
Candida mycoderma; [13]
  diameter of the bacteria-inhibition zone, Candida mycoderma 48 h: ++ (9-12 mm: ++)
Candida albicans; [4]
  diameter of the bacteria-inhibition zone, Candida albicans 0 h: + (7-9 mm: +)
Candida albicans; [5]
  diameter of the bacteria-inhibition zone, Candida albicans 0 h: + (7-9 mm: +)
Candida albicans; [6]
  diameter of the bacteria-inhibition zone, Candida albicans 0 h: ++ (9-12 mm: ++)
Candida albicans; [7]
  diameter of the bacteria-inhibition zone, Candida albicans 0 h: ++ (9-12 mm: ++)
Candida albicans; [8]
  diameter of the bacteria-inhibition zone, Candida albicans 6 h: + (7-9 mm: +)
Candida albicans; [14]
  diameter of the bacteria-inhibition zone, Candida albicans 6 h: ++ (9-12 mm: ++)
Candida albicans; [9]
  diameter of the bacteria-inhibition zone, Candida albicans 6 h: ++ (9-12 mm: ++)
Candida albicans; [10]
  diameter of the bacteria-inhibition zone, Candida albicans 24 h: + (7-9 mm: +)
Candida albicans; [11]
  diameter of the bacteria-inhibition zone, Candida albicans 24 h: ++ (9-12 mm: ++)
Candida albicans; [12]
  diameter of the bacteria-inhibition zone, Candida albicans 48 h: + (7-9 mm: +)
Candida albicans; [13]
  diameter of the bacteria-inhibition zone, Candida albicans 48 h: ++ (9-12 mm: ++)

## COC(=O)[C@H]1[C@@H]2C[C@@H](O[C@@H]3O[C@H](C)[C@@H](O)[C@H](N)[C@@H]3O)/C=C/C=C/C=C/C=C/C=C/C=C/C=C/[C@H](C)[C@@H](O)[C@@H](C)[C@H](C)OC(=O)C[C@H](O)C[C@H](O)CC[C@@H](O)[C@H](O)C[C@H](O)C[C@](O)(C[C@@H]1O)O2 [amphotericin methyl ester]
Esterase [2]
  hydrolysis by esterase in vivo: cannot be hydrolyzed by esterase in vivo
[3]
  toxicity: toxicity was lowered

## C[C@@H]1[C@H](O)[C@@H](C)/C=C/C=C/C=C/C=C/C=C/C=C/C=C/[C@H](O[C@@H]2O[C@H](C)[C@@H](O)[C@H](N)[C@@H]2O)C[C@@H]2O[C@](O)(C[C@@H](O)C[C@@H](O)[C@H](O)CC[C@@H](O)C[C@@H](O)CC(=O)O[C@H]1C)C[C@H](O)[C@H]2C(=O)O [amphotericin B, reference compound]
Most of the fungal
  minimum inhibitory concentration (MIC): 0.02 to 1 mg/L
Saccharomyces cerevisiae; 0 h, 1.4 μg/ml after conversion, serum added (40% defibered sheep serum), read-out: diameter of the bacteria-inhibition zone, Saccharomyces cerevisiae 0 h
  zone of inhibition at 1.4 µg/mL: 14 to 16 mm
Saccharomyces cerevisiae; 0 h, 2.8 μg/ml after conversion, no serum, read-out: diameter of the bacteria-inhibition zone, Saccharomyces cerevisiae 0 h
  zone of inhibition at 2.8 µg/mL: 16 to 18 mm
Saccharomyces cerevisiae; 6 h, 1.4 μg/ml after conversion, serum added (40% defibered sheep serum), read-out: diameter of the bacteria-inhibition zone, Saccharomyces cerevisiae 6 h
  zone of inhibition at 1.4 µg/mL: 14 to 16 mm
Saccharomyces cerevisiae; 6 h, 2.8 μg/ml after conversion, no serum, read-out: diameter of the bacteria-inhibition zone, Saccharomyces cerevisiae 6 h
  zone of inhibition at 2.8 µg/mL: 16 to 18 mm
Saccharomyces cerevisiae; 24 h, 1.4 μg/ml after conversion, serum added (40% defibered sheep serum), read-out: diameter of the bacteria-inhibition zone, Saccharomyces cerevisiae 24 h
  zone of inhibition at 1.4 µg/mL: 14 to 16 mm
Saccharomyces cerevisiae; 24 h, 2.8 μg/ml after conversion, no serum, read-out: diameter of the bacteria-inhibition zone, Saccharomyces cerevisiae 24 h
  zone of inhibition at 2.8 µg/mL: 16 to 18 mm
Saccharomyces cerevisiae; 48 h, 1.4 μg/ml after conversion, serum added (40% defibered sheep serum), read-out: diameter of the bacteria-inhibition zone, Saccharomyces cerevisiae 48 h
  zone of inhibition at 1.4 µg/mL: 14 to 16 mm
Saccharomyces cerevisiae; 48 h, 2.8 μg/ml after conversion, no serum, read-out: diameter of the bacteria-inhibition zone, Saccharomyces cerevisiae 48 h
  zone of inhibition at 2.8 µg/mL: 16 to 18 mm
Candida mycoderma; 0 h, 1.4 μg/ml after conversion, serum added (40% defibered sheep serum), read-out: diameter of the bacteria-inhibition zone, Candida mycoderma 0 h
  zone of inhibition at 1.4 µg/mL: 12 to 14 mm
Candida mycoderma; 0 h, 2.8 μg/ml after conversion, no serum, read-out: diameter of the bacteria-inhibition zone, Candida mycoderma 0 h
  zone of inhibition at 2.8 µg/mL: 14 to 16 mm
Candida mycoderma; 6 h, 1.4 μg/ml after conversion, serum added (40% defibered sheep serum), read-out: diameter of the bacteria-inhibition zone, Candida mycoderma 6 h
  zone of inhibition at 1.4 µg/mL: 12 to 14 mm
Candida mycoderma; 6 h, 2.8 μg/ml after conversion, no serum, read-out: diameter of the bacteria-inhibition zone, Candida mycoderma 6 h
  zone of inhibition at 2.8 µg/mL: 14 to 16 mm
Candida mycoderma; 24 h, 1.4 μg/ml after conversion, serum added (40% defibered sheep serum), read-out: diameter of the bacteria-inhibition zone, Candida mycoderma 24 h
  zone of inhibition at 1.4 µg/mL: 12 to 14 mm
Candida mycoderma; 24 h, 2.8 μg/ml after conversion, no serum, read-out: diameter of the bacteria-inhibition zone, Candida mycoderma 24 h
  zone of inhibition at 2.8 µg/mL: 14 to 16 mm
Candida mycoderma; 48 h, 1.4 μg/ml after conversion, serum added (40% defibered sheep serum), read-out: diameter of the bacteria-inhibition zone, Candida mycoderma 48 h
  zone of inhibition at 1.4 µg/mL: 12 to 14 mm
Candida mycoderma; 48 h, 2.8 μg/ml after conversion, no serum, read-out: diameter of the bacteria-inhibition zone, Candida mycoderma 48 h
  zone of inhibition at 2.8 µg/mL: 14 to 16 mm
Candida albicans; 0 h, 1.4 μg/ml after conversion, serum added (40% defibered sheep serum), read-out: diameter of the bacteria-inhibition zone, Candida albicans 0 h
  zone of inhibition at 1.4 µg/mL: 12 to 14 mm
Candida albicans; 0 h, 2.8 μg/ml after conversion, no serum, read-out: diameter of the bacteria-inhibition zone, Candida albicans 0 h
  zone of inhibition at 2.8 µg/mL: 14 to 16 mm
Candida albicans; 6 h, 1.4 μg/ml after conversion, serum added (40% defibered sheep serum), read-out: diameter of the bacteria-inhibition zone, Candida albicans 6 h
  zone of inhibition at 1.4 µg/mL: 12 to 14 mm
Candida albicans; 6 h, 2.8 μg/ml after conversion, no serum, read-out: diameter of the bacteria-inhibition zone, Candida albicans 6 h
  zone of inhibition at 2.8 µg/mL: 14 to 16 mm
Candida albicans; 24 h, 1.4 μg/ml after conversion, serum added (40% defibered sheep serum), read-out: diameter of the bacteria-inhibition zone, Candida albicans 24 h
  zone of inhibition at 1.4 µg/mL: 12 to 14 mm
Candida albicans; 24 h, 2.8 μg/ml after conversion, no serum, read-out: diameter of the bacteria-inhibition zone, Candida albicans 24 h
  zone of inhibition at 2.8 µg/mL: 14 to 16 mm
Candida albicans; 48 h, 1.4 μg/ml after conversion, serum added (40% defibered sheep serum), read-out: diameter of the bacteria-inhibition zone, Candida albicans 48 h
  zone of inhibition at 1.4 µg/mL: 12 to 14 mm
Candida albicans; 48 h, 2.8 μg/ml after conversion, no serum, read-out: diameter of the bacteria-inhibition zone, Candida albicans 48 h
  zone of inhibition at 2.8 µg/mL: 14 to 16 mm

— patent US8217013B2, “Polyene diester antibiotics” (priority 2007, dated 2012)
